Laboratory results reported in patent publication US20230321199A1, “USES OF PTHrP ANALOGUE IN REDUCING FRACTURE RISK” (Radius Health, Inc., priority 2015, published 2023).
Like-named read-outs stand apart in the source and are kept apart here. Marks after values point to notes of the source that are not given here.

Experiments:
[1] = system: postmenopausal women with osteoporosis; details: in vivo
Method: (§2) Safety evaluations performed in the ACTIVE trial included physical examinations, vital signs, 12-lead electrocardiograms, or ECGs, clinical laboratory tests and monitoring, and recording of adverse events. Specific safety assessments included pre-dose and post-dose (four hours) determination of serum calcium, determination of creatinine clearance, post-dose ECG assessments at selected visits, and assessments of postural hypotension (60 minutes post-dose) at selected clinic visits.
(§3) The ACTIVE trial also evaluated several potential safety measures, including blood calcium levels, orthostatic hypotension, nausea, dizziness, and injection-site reactions.

[2] = system: postmenopausal women with osteoporosis; details: in vivo; remark: listed apart in the source
[3] = system: postmenopausal women with osteoporosis; test: ACTIVE trial: adverse events; details: 18-month ACTIVE trial
Method: as §2, §3

[4] = system: postmenopausal women with osteoporosis; test: Phase 2 trial: safety, serum calcium, antibody formation; details: 24 weeks; 20 μg daily SC
[5] = system: postmenopausal women with osteoporosis; test: Phase 2 trial 24-week extension (48 weeks): BMD and tolerability; details: 20 μg daily SC
[6] = system: postmenopausal women with osteoporosis; test: ACTIVE trial: BMD of lumbar spine, total hip, femoral neck by DXA; assay type: in vivo, human
Method: BMD and bone turnover biomarkers (CTX and P1NP) were also evaluated in all patient groups to compare the effects of abaloparatide versus teriparatide.
(§1) As set forth in the ACTIVE protocol, the primary efficacy endpoint was the number of patients treated with abaloparatide with incident vertebral fractures at the end of treatment as compared to those who received placebo. The pre-specified secondary efficacy parameters included, among other endpoints, reduction in the incidence/risk of non-vertebral fractures; changes in BMD of the spine, hip, and femoral neck from baseline to end of treatment as assessed by DXA and as compared to teriparatide; and the number of hypercalcemic events in abaloparatide treated patients when compared to teriparatide at end of treatment.
Comparative analyses of abaloparatide versus teriparatide were completed on the following BMD secondary endpoints using a Mixed-Effect Model for Repeated Measures (MMRM) method, shown in Table 4 below:
Comparative analyses of the PTHrP analogues abaloparatide and teriparatide were completed on the following BMD secondary endpoints using an ANCOVA approach, shown in Table 5 below: […]

[7] = system: postmenopausal women with osteoporosis; test: Phase 2 dose-finding trial: 24-week BMD by DXA; assay type: in vivo, human; details: 24 weeks; 20 μg daily SC
Description: Healthy postmenopausal women between the ages of 55 to 85 (based on a 5-year history of amenorrhea and an elevated serum level of FSH) were enrolled in the study if they met one of the following the following definitions of osteoporosis: • 1) DXA-derived BMD T-score≤−2.5 at the lumbar spine or femoral neck or total hip. • 2) DXA-derived BMD T-score ≤−2.0 with a history of a prior low trauma forearm, humerus, vertebral, sacral, pelvic, hip, femoral, or tibial fracture within the past five years. • 3) DXA-derived BMD T-score ≤−2.0 with an additional osteoporosis risk factor such as age >65 years or strong maternal history of osteoporosis (defined as a fracture related to osteoporosis or osteoporosis itself determined by BMD criteria).
Dual X-ray absorptiometry: DXA scans were obtained at each local site and then sent to a central imaging reader (BioClinica Inc. Newton, PA) where they underwent a quality control review and then analyzed according to each manufacturers guidelines. Scans performed during the treatment period on the same instrument used for the baseline scan were acquired. Each study site performed Instrument Quality Control over time (instrument standardization and phantom calibration) that was reviewed by the central reader.

[8] = system: postmenopausal women with osteoporosis; test: ACTIVE phase 3 trial: fracture rates and fracture risk over 18 months; assay type: in vivo, human
Method: The ACTIVE phase 3 fracture prevention trial was conducted for abaloparatide in postmenopausal women with osteoporosis who were otherwise healthy. The enrolled subjects were treated with 80 micrograms (μg) of abaloparatide, a matching placebo, or the approved daily dose of 20 μg of teriparatide for 18 months. The ACTIVE trial evaluated fracture rates, fracture risks, BMD, and bone turnover biomarkers (e.g., CTX and P1NP) in all patient groups.
Fracture risk reduction and hazard ratio (HR) were derived from Kaplan-Meier (KM) curve.
The ACTIVE pivotal Phase 3 fracture prevention trial for the PTHrP analogue abaloparatide, Study BA058-05-003 (see ClinicalTrials.gov), was a randomized, double-blind, placebo-controlled trial in postmenopausal osteoporotic women randomized to receive daily doses of one of the following for 18 months: 80 micrograms (μg) of abaloparatide; a matching placebo; or the approved daily dose of 20 μg of teriparatide. Treatment with abaloparatide at a daily dose of 80 μg or placebo remained blinded to all parties throughout the study. Teriparatide used was a proprietary prefilled drug and device combination that could not be repackaged. Therefore, its identity could not be blinded to treating physicians and patients once use began. Study medication was self-administered daily by subcutaneous injection for a maximum of 18 months. All enrolled patients also received calcium and vitamin D supplementation from the time of enrollment until the end of the treatment period. It was recommended to patients that they also continue these supplements through the one-month follow-up period.
The study enrolled otherwise healthy ambulatory women aged 49 to 86 (inclusive) who had been postmenopausal for at least five years, met the study entry criteria, and had provided written informed consent. […] All patients were to be in good general health as determined by medical history, physical examination (including vital signs), and clinical laboratory testing. This study population contained a patient population reflective of the type of severe osteoporosis patients that specialists would be expected to treat in their practices.
as §1

CC[C@H](C)[C@H](NC(=O)[C@H](CO)NC(=O)[C@H](CCCCN)NC(=O)CNC(=O)[C@H](CCCCN)NC(=O)[C@H](CC(=O)O)NC(=O)[C@H](Cc1cnc[nH]1)NC(=O)[C@H](CC(C)C)NC(=O)[C@H](CC(C)C)NC(=O)[C@H](CCC(N)=O)NC(=O)[C@H](Cc1cnc[nH]1)NC(=O)[C@H](CCC(=O)O)NC(=O)[C@H](CO)NC(=O)[C@@H](NC(=O)[C@H](C)N)C(C)C)C(=O)N[C@@H](CCC(N)=O)C(=O)N[C@@H](CC(=O)O)C(=O)N[C@@H](CC(C)C)C(=O)N[C@@H](CCCNC(=N)N)C(=O)N[C@@H](CCCNC(=N)N)C(=O)N[C@@H](CCCNC(=N)N)C(=O)N[C@@H](CCC(=O)O)C(=O)N[C@@H](CC(C)C)C(=O)N[C@@H](CC(C)C)C(=O)N[C@@H](CCC(=O)O)C(=O)N[C@@H](CCCCN)C(=O)N[C@@H](CC(C)C)C(=O)N[C@@H](CC(C)C)C(=O)NC(C)(C)C(=O)N[C@@H](CCCCN)C(=O)N[C@@H](CC(C)C)C(=O)N[C@@H](Cc1cnc[nH]1)C(=O)N[C@H](C(=O)N[C@@H](C)C(N)=O)[C@@H](C)O [abaloparatide, [Glu^22,25, Leu^23,28,31, Aib^29, Lys^26,30]hpTHrP(1-34)NH2]
AE: Arthralgia [1]: 8.6% | AE: Back Pain [1]: 8.5% | AE: Constipation [1]: 4.5% | AE: Dizziness [1]: 10.0%‡ | AE: Headache [1]: 7.5% | AE: Hypercalcemia (serum albumin-corrected calcium value ≥ 10.7 mg/dL) [1]: 3.41%^† | AE: Hypertension [1]: 7.2% | AE: Nasopharyngitis [1]: 5.8% | AE: Nausea [1]: 8.3%‡ | AE: Pain in extremity [1]: 4.9% | AE: Palpitations [1]: 5.1%‡ | AE: Upper respiratory tract infection [1]: 8.3% | AE: Urinary tract infection [1]: 5.2% | anti-abaloparatide antibody titer in positive patients [2]: ≤ 1:20 | AE: Influenza [3]: 6.3%

CC[C@H](C)[C@H](NC(=O)[C@H](CCC(=O)O)NC(=O)[C@H](CO)NC(=O)[C@@H](NC(=O)[C@@H](N)CO)C(C)C)C(=O)N[C@@H](CCC(N)=O)C(=O)N[C@@H](CC(C)C)C(=O)N[C@@H](CCSC)C(=O)N[C@@H](Cc1cnc[nH]1)C(=O)N[C@@H](CC(N)=O)C(=O)N[C@@H](CC(C)C)C(=O)NCC(=O)N[C@@H](CCCCN)C(=O)N[C@@H](Cc1cnc[nH]1)C(=O)N[C@@H](CC(C)C)C(=O)N[C@@H](CC(N)=O)C(=O)N[C@@H](CO)C(=O)N[C@@H](CCSC)C(=O)N[C@@H](CCC(=O)O)C(=O)N[C@@H](CCCN=C(N)N)C(=O)N[C@H](C(=O)N[C@@H](CCC(=O)O)C(=O)N[C@@H](Cc1c[nH]c2ccccc12)C(=O)N[C@@H](CC(C)C)C(=O)N[C@@H](CCCN=C(N)N)C(=O)N[C@@H](CCCCN)C(=O)N[C@@H](CCCCN)C(=O)N[C@@H](CC(C)C)C(=O)N[C@@H](CCC(N)=O)C(=O)N[C@@H](CC(=O)O)C(=O)N[C@H](C(=O)N[C@@H](Cc1cnc[nH]1)C(=O)N[C@@H](CC(N)=O)C(=O)N[C@@H](Cc1ccccc1)C(=O)O)C(C)C)C(C)C [teriparatide, hPTH(1-34)]
incidence of dizziness [4]: 4% | femoral neck BMD increase ([5]; 48 weeks): 2.2% | lumbar spine BMD increase ([5]; 48 weeks): 8.6% | total hip BMD increase ([5]; 48 weeks): 1.3% | treatment-related TEAEs ([5]; extension study): 21% | Mean Percent Change In BMD From Baseline (ANCOVA), Femoral Neck ([6]; 6 mo): 0.80%* | Mean Percent Change in BMD From Baseline (MMRM), Femoral Neck ([6]; 6 mo): 0.87%* | Mean Percent Change In BMD From Baseline (ANCOVA), Lumbar Spine ([6]; 12 mo): 7.40%* | subjects with BMD increases of >3% at all three sites ([6]; 12 months): 19.8% | subjects with BMD increases of >3% at all three sites ([6]; 18 months): 32.0% | subjects with increased BMD of >3% at all three sites (lumbar spine, total hip, femoral neck) ([6]; month 6): 6.5% | femoral neck BMD increase (±SD) [7]: 1.1±4.6% | total hip BMD increase (±SD) [7]: 0.5±3.9% | AE: Arthralgia [3]: 8.6% | AE: Back Pain [3]: 7.2%‡ | AE: Constipation [3]: 4.2% | AE: Dizziness [3]: 7.3% | AE: Headache [3]: 6.2% | AE: Hypercalciuria [3]: 12.5%‡ | AE: Hypertension [3]: 5.0% | AE: Influenza [3]: 4.2% | AE: Nasopharyngitis [3]: 6.5% | AE: Nausea [3]: 5.1%‡ | AE: Pain in extremity [3]: 5.1% | AE: Palpitations [3]: 1.6%‡ | AE: Upper respiratory tract infection [3]: 8.9% | AE: Urinary tract infection [3]: 5.0% | hazard ratio, incident clinical fractures, as compared to placebo [8]: 0.71 | hazard ratio, non-vertebral fractures, as compared to placebo [8]: 0.72 | fracture rate, non-vertebral fractures (rate given with hazard ratio) ([8]; placebo group 4.7%): 3.3% | fracture rate, incident clinical fractures (rate given with hazard ratio) ([8]; placebo group 8.3%): 4.8%
